Entries after “also recorded” stand apart in the source; their conditions may differ.
System: human erythrocytes
Test: Erythrocyte ATP release
Assay type: cell-based
Description: Erythrocyte ATP release was measured in both the absence and presence of (a) the PGI2 agonist, treprostinil in the form of UT-15 or its vehicle, saline, and (b) alone or in combination with the selective PDE5 inhibitor, zapranist (ZAP, 10 μM).

## CCCCC[C@H](O)CC[C@@H]1[C@H]2Cc3cccc(OCC(=O)O)c3C[C@H]2C[C@H]1O [UT-15, treprostinil]
UT-15 30 nM alone, n=7
  ATP release from erythrocytes: no ATP release was detected
UT-15 30 nM, cells pretreated with ZAP 10 μM, n=7
  ATP release from erythrocytes: induce a response; also recorded: ATP release was stimulated
UT-15 100 nM alone, n=7
  ATP release from erythrocytes: no ATP release was detected
UT-15 100 nM, cells pretreated with ZAP 10 μM, n=7
  ATP release from erythrocytes: induce a response; also recorded: ATP release was stimulated
UT-15 1 uM alone, n=7
  ATP release from erythrocytes compared to controls: increase in ATP release
UT-15 alone at 10 to 100 nM, FIG. 3
  ATP release from human erythrocytes: does not stimulate ATP release
UT-15 alone, FIG. 2, concentration not printed in legend
  ATP release from human erythrocytes: stimulates increases in ATP release

## CCCOc1ccccc1-c1nc2nn[nH]c2c(=O)[nH]1 [zapranist]
FIG. 2, concentration not printed in legend
  potentiation of UT-15-induced increases in ATP release: potentiated
ZAP 10 μM pretreatment, UT-15 1 uM, P<0.05
  potentiation of UT-15-induced ATP release: potentiated

Reference: US9387214B2, “Method of identifying therapies for pulmonary hypertension” (United Therapeutics Corporation, priority 2012, dated 2016)
